Where a name gives a salt, the structure may show the parent alone.

The target of this assay is T1, CYP11A1 (Homo sapiens, UniProt P05108).
T1 construct: human H295R adrenocortical carcinoma cell line was used as source of enzyme; endogenous in cells; host or cells: H295R human adrenocortical carcinoma cells
T1 sequence (P05108 40-521): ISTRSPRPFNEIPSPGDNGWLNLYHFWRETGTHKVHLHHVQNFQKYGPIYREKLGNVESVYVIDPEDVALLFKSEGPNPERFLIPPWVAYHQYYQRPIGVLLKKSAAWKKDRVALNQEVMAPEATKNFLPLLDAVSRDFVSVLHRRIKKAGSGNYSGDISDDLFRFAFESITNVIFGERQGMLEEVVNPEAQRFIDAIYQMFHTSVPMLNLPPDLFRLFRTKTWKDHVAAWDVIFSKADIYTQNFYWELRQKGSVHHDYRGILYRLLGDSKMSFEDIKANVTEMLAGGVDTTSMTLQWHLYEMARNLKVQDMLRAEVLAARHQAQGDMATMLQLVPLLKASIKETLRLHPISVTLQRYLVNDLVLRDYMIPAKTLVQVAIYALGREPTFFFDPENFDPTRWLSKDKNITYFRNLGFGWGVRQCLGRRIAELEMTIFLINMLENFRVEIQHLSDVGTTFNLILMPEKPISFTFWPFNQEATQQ
Kind of assay: CYP11A1 inhibition: modified isocaproic acid release assay (IARA) in H295R cells. Type of assay: cell-based. The conditions noted are these: human H295R adrenocortical carcinoma cells treated three days, 3 nM [24,25-3H]-labelled cholesterol, 1% DMSO, 10 concentrations in duplicates; read-out: IC50 of the test compounds on CYP11A1 inhibition. How it is done:
The ability of the test compounds to inhibit conversion of cholesterole to pregnenolone and isocaproic acid was measured by modification of isocaproic acid release assay (IARA) described by Ruangwises et. al. (Biology of Reproduction 1991; 45(1):143-50) except that human H295R adrenocortical carcinoma cell line was used as source of enzyme and extraction was done with dextran-coated charcoal suspension (Isomaa, V. et al., Endocrinology 1982; 111(3):833-843). […] To determine the half maximal inhibitory concentration (IC50) of the test compounds on CYP11A1 inhibition, the cells were treated for three days with increasing concentrations of the test compounds in the presence of 3 nM [24,25-3H]-labelled cholesterol (American Radiolabelled Chemicals). The final DMSO concentration was 1%. Cell culture medium was extracted with dextran-coated charcoal suspension and the radiolabelled isocaproic acid was determined by mixing 100 μl of supernatant fraction in 200 μl of scintillation fluid (OptiPhase SuperMix, Perkin Elmer). Radioactivity was measured using a Microbeta scintillation counter (1450 MicroBeta Trilux, Wallac). All the test compounds were studied at 10 concentrations in duplicates.
In the case of `CS(=O)(=O)N1CCC(COc2coc(C[N+]3([O-])Cc4ccc(C(F)(F)F)cc4C3)cc2=O)CC1` (stereo not drawn) [Compound 290, 2-((5-((1-(Methylsulfonyl)piperidin-4-yl)methoxy)-4-oxo-4H-pyran-2-yl)methyl)-5-(trifluoromethyl)isoindoline 2-oxide], the IC50 (usually the midpoint of a concentration-inhibition curve) lay within 301 to 2000 nM. To `CN(C)C(=O)c1ccc(COc2coc(CN3Cc4ccc(Cl)cc4C3)cc2=O)cc1` [Compound 137, 4-(((6-((5-Chloroisoindolin-2-yl)methyl)-4-oxo-4H-pyran-3-yl)oxy)methyl)-N,N-dimethylbenzamide] belongs less than 150 nM. To `CN(C)C(=O)c1c(F)cc(COc2coc(CN3Cc4ccccc4C3)cc2=O)cc1F` [Compound 174, 2,6-Difluoro-4-(((6-(isoindolin-2-ylmethyl)-4-oxo-4H-pyran-3-yl)oxy)methyl)-N,N-dimethylbenzamide] belongs 150 to 300 nM. `CS(=N)(=O)c1ccc(COc2coc(CN3Cc4ccc(C(F)(F)F)cc4C3)cc2=O)cc1` (stereo not drawn) [Compound 89, 5-((4-(S-Methylsulfonimidoyl)benzyl)oxy)-2-((5-(trifluoromethyl)isoindolin-2-yl)methyl)-4H-pyran-4-one]: the IC50 is less than 150 nM. To `NC(=O)c1ccc(COc2coc(CN3Cc4ccccc4C3)cc2=O)cc1` [Compound 57, 4-(((6-(Isoindolin-2-ylmethyl)-4-oxo-4H-pyran-3-yl)oxy)methyl)benzamide] belongs 301 to 2000 nM; to `O=C(N1CCOCC1)N1CCC(COc2coc(CN3Cc4ccccc4C3)cc2=O)CC1` [Compound 232, 2-(Isoindolin-2-ylmethyl)-5-((1-(morpholine-4-carbonyl)piperidin-4-yl)methoxy)-4H-pyran-4-one], less than 150 nM; to `O=C(c1ccco1)N1CCC(COc2coc(CN3Cc4ccccc4C3)cc2=O)CC1` [Compound 260, 5-((1-(Furan-2-carbonyl)piperidin-4-yl)methoxy)-2-(isoindolin-2-ylmethyl)-4H-pyran-4-one], 150 to 300 nM. To `CS(=O)(=O)c1ccc(COc2coc(CN3Cc4ccccc4C3)cc2=O)c(F)c1` [Compound 34, 5-((2-Fluoro-4-(methylsulfonyl)benzyl)oxy)-2-(isoindolin-2-ylmethyl)-4H-pyran-4-one] belongs 150 to 300 nM; to `O=c1cc(CN2Cc3ccccc3C2)occ1OCc1ccc(SC(F)(F)F)cc1` [Compound 3, 2-(Isoindolin-2-ylmethyl)-5-((4-((trifluoromethyl)thio)benzyl)oxy)-4H-pyran-4-one], 301 to 2000 nM. `CCN=S(C)(=O)c1ccc(COc2coc(CN3Cc4ccccc4C3)cc2=O)cc1` (stereo not drawn) [Compound 97, 5-((4-(N-Ethyl-S-methylsulfonimidoyl)benzyl)oxy)-2-(isoindolin-2-ylmethyl)-4H-pyran-4-one]: the IC50 lay within 150 to 300 nM.

For `CC(C)(C)OC(=O)N1CCC(Oc2coc(CN3Cc4ccccc4C3)cc2=O)CC1` [Compound 203, tert-Butyl 4-((6-(isoindolin-2-ylmethyl)-4-oxo-4H-pyran-3-yl)oxy)piperidine-1-carboxylate], the IC50 is 301 to 2000 nM. For `CN(C)C(=O)c1ccc(COc2coc(CN3Cc4ccccc4C3)cc2=O)cc1` [Compound 120, 4-(((6-(Isoindolin-2-ylmethyl)-4-oxo-4H-pyran-3-yl)oxy)methyl)-N,N-dimethylbenzamide], the IC50 is 150 to 300 nM.

Take `CNC(=O)N1CCC(COc2coc(CN3Cc4ccccc4C3)cc2=O)CC1` [Compound 228, 4-(((6-(Isoindolin-2-ylmethyl)-4-oxo-4H-pyran-3-yl)oxy)methyl)-N-methyl-piperidine-1-carboxamide]: the IC50 lay in the range of 150 to 300 nM. Take `NS(=O)(=O)c1ccc(COc2coc(CN3Cc4ccccc4C3)cc2=O)cc1` [Compound 13, 4-(((6-(Isoindolin-2-ylmethyl)-4-oxo-4H-pyran-3-yl)oxy)methyl)benzenesulfonamide]: the IC50 was 301 to 2000 nM. Regarding `O=C(N1CCCC1)N1CCC(COc2coc(CN3Cc4ccccc4C3)cc2=O)CC1` [Compound 215, 2-(Isoindolin-2-ylmethyl)-5-((1-(pyrrolidine-1-carbonyl)piperidin-4-yl)methoxy)-4H-pyran-4-one], the IC50 was less than 150 nM.

As to `Cc1ccc(S(=O)(=O)N2CCN(C(=O)COc3coc(CN4Cc5ccccc5C4)cc3=O)CC2)cc1` [Compound 157, 2-(Isoindolin-2-ylmethyl)-5-(2-oxo-2-(4-tosylpiperazin-1-yl)ethoxy)-4H-pyran-4-one], the IC50 lay within 301 to 2000 nM. To `CC(C)CC(=O)N[C@@H]1C=C[C@H](COc2coc(CN3Cc4ccccc4C3)cc2=O)C1` (relative stereo) [Compound 275, Cis-N-(4-(((6-(isoindolin-2-ylmethyl)-4-oxo-4H-pyran-3-yl)oxy)methyl)cyclo-pent-2-en-1-yl)-3-methylbutanamide, Formate] belongs 301 to 2000 nM; to `CC(C)(O)c1ccc(COc2coc(CN3CCc4ccccc4C3)cc2=O)cc1` [Compound 44, 2-((3,4-dihydroisoquinolin-2(1H)-yl)methyl)-5-((4-(2-hydroxypropan-2-yl)-benzyl)oxy)-4H-pyran-4-one], less than 150 nM. Regarding `CC(C)CS(=O)(=O)c1ccc(COc2coc(CN3Cc4ccccc4C3)cc2=O)cc1` [Compound 73, 5-((4-(Isobutylsulfonyl)benzyl)oxy)-2-(isoindolin-2-ylmethyl)-4H-pyran-4-one], the IC50 is less than 150 nM.

For the compound `CNS(=O)(=O)c1ccc(COc2coc(CN3Cc4ccccc4C3)cc2=O)cc1` [Compound 8, 4-(((6-(Isoindolin-2-ylmethyl)-4-oxo-4H-pyran-3-yl)oxy)methyl)-N-methylbenzenesulfonamide], the IC50 was less than 150 nM. With `CC(=O)[C@H]1CC[C@H](COc2coc(CN3Cc4ccccc4C3)cc2=O)CC1` [Compound 244, 5-(((1r,4r)-4-Acetylcyclohexyl)methoxy)-2-(isoindolin-2-ylmethyl)-4H-pyran-4-one], the IC50 was less than 150 nM.

For `O=C(COc1coc(CN2Cc3ccccc3C2)cc1=O)N1CCN(S(=O)(=O)c2ccccc2)CC1` [Compound 156, 2-(Isoindolin-2-ylmethyl)-5-(2-oxo-2-(4-(phenylsulfonyl)piperazin-1-yl)ethoxy)-4H-pyran-4-one], the IC50 fell in the range of 301 to 2000 nM. To `CS(=O)(=O)NCc1ccc(COc2coc(CN3Cc4ccccc4C3)cc2=O)cc1` [Compound 113, N-(4-(((6-(Isoindolin-2-ylmethyl)-4-oxo-4H-pyran-3-yl)oxy)methyl)benzyl)-methanesulfonamide] belongs less than 150 nM; to `NC(=O)c1ccc(COc2coc(CN3Cc4ccccc4C3)cc2=O)cc1F` [Compound 171, 2-Fluoro-4-(((6-(isoindolin-2-ylmethyl)-4-oxo-4H-pyran-3-yl)oxy)methyl)-benzamide], 301 to 2000 nM. To `COCCS(=O)(=O)c1ccc(COc2coc(CN3Cc4ccccc4C3)cc2=O)cc1` [Compound 28, 2-(Isoindolin-2-ylmethyl)-5-((4-((2-methoxyethyl)sulfonyl)benzyl)oxy)-4H-pyran-4-one] belongs 150 to 300 nM; to `CS(=O)(=O)c1ccc(COc2coc(CN3Cc4ccc(F)cc4C3)cc2=O)cc1` [Compound 63, 2-((5-Fluoroisoindolin-2-yl)methyl)-5-((4-(methylsulfonyl)benzyl)oxy)-4H-pyran-4-one], 150 to 300 nM. To `CN(CCC#N)S(=O)(=O)c1ccc(COc2coc(CN3Cc4ccccc4C3)cc2=O)cc1` [Compound 23, N-(2-Cyanoethyl)-4-(((6-(isoindolin-2-ylmethyl)-4-oxo-4H-pyran-3-yl)oxy)-methyl)-N-methylbenzenesulfonamide] belongs less than 150 nM; to `N#Cc1cccc(COc2coc(CN3CCc4ccccc4C3)cc2=O)c1` [Compound 50, 3-(((6-((3,4-Dihydroisoquinolin-2(1H)-yl)methyl)-4-oxo-4H-pyran-3-yl)oxy)-methyl)benzonitrile], 301 to 2000 nM; to `CS(=O)(=O)N1CCC(COc2coc(CN3Cc4ccc(F)cc4C3)cc2=O)CC1` [Compound 186, 2-((5-Fluoroisoindolin-2-yl)methyl)-5-((1-(methylsulfonyl)piperidin-4-yl)-methoxy)-4H-pyran-4-one], less than 150 nM. As for `CS(=O)(=O)N1CCC(COc2coc(CN3Cc4cc5c(cc4C3)OCO5)cc2=O)CC1` [Compound 209, 2-((5,7-Dihydro-6H-[1,3]dioxolo[4,5-f]isoindol-6-yl)methyl)-5-((1-(methyl-sulfonyl)piperidin-4-yl)methoxy)-4H-pyran-4-one], the IC50 was 150 to 300 nM.

These data come from patent US11098032B2, “Pyran dervatives as CYP11A1 (cytochrome P450 monooxygenase 11A1) inhibitors” (ORION CORPORATION, priority 2016, dated 2021).
